The target of the data set is ATP-dependent translocase ABCB1 (Homo sapiens, UniProt P08183). Nature of the data set: TP_TRANSPORTER: transepithelial transport (basal to apical) of AGN 197075 at a concentration of 10 uM in MDR1-expressing MDCK cells. It counts as functional, cell-based. As to conditions: dog.

The values below come from ChEMBL document CHEMBL2074165, “Evaluation of an immortalized retinal endothelial cell line as an in vitro model for drug transport studies across the blood-retinal barrier” (Pharm Res, 2003).

Molecules are shown by their SMILES.

Sequence of ATP-dependent translocase ABCB1 (P08183 whole entry): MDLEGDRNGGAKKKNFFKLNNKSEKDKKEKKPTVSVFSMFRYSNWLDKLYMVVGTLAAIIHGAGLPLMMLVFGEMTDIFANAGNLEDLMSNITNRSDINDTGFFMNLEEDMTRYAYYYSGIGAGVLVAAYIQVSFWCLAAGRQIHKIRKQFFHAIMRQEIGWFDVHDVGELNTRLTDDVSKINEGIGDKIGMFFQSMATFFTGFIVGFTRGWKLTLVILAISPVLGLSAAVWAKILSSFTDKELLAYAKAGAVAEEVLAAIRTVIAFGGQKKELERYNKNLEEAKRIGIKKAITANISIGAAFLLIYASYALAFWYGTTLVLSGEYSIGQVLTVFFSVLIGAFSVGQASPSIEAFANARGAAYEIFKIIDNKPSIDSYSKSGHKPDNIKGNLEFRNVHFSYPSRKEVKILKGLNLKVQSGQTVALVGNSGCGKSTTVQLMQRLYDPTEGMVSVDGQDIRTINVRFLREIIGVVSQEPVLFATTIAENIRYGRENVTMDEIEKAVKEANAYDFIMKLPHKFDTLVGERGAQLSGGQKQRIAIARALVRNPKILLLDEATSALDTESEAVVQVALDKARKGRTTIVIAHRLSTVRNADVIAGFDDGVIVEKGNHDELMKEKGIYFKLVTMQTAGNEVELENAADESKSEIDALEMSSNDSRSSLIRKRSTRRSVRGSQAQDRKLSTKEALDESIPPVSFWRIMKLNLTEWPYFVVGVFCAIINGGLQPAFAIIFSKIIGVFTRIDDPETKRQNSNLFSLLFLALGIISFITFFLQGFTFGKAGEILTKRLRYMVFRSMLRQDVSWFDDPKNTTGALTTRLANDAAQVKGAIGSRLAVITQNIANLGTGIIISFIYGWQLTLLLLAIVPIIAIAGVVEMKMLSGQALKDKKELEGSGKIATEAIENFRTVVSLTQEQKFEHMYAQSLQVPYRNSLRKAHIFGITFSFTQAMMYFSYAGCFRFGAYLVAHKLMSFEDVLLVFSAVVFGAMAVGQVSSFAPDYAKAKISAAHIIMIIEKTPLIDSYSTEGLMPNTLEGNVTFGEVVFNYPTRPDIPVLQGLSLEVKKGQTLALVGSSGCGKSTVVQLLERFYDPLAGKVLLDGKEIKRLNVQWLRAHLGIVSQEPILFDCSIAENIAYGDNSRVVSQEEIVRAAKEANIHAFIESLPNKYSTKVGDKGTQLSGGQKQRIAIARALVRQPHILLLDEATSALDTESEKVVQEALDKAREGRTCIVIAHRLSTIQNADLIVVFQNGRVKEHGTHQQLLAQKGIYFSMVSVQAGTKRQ

For `OCCNC(=S)NCc1cccc(Cl)c1F`, the Activity result was “substrate [+]”.
